In patent US10780092B2, “Fused pyrazine derivatives useful as soluble guanylate cyclase stimulators” (Merck Sharp & Dohme Corp., priority 2016, dated 2020):
pEC50, pKi: −log10 of the molar value.

Key:
[1] = biological target: human recombinant sGC enzyme (Homo sapiens (Human), UniProt Q02108+Q02153); test: SEC competition binding assay with [3H] Compound B radioligand; conditions: displacement of 1.6 nM [3H] Compound B, 24 h at 37° C.
Procedure, shortened: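 Competition format: [3H] Compound B (1.6 nM) displaced from human recombinant sGC over 24 h at 37° C. in triethanolamine pH 7.4 buffer with MgCl2, BSA, DTT, 300 μM DETA/NO and 400 μM GTP (1% DMSO). Gel-filtration eluates counted by liquid scintillation; 1 μM Compound B defined non-specific binding; Ki by one-site fit.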

sGC α1/β1 heterodimer = sGC α1/β1 heterodimer (Homo sapiens (Human), UniProt Q02108+Q02153); test: Cell-based sGC functional assay (CASA assay), cGMP by HTRF; conditions: CHO-K1/sGC cells; for Emax: CHO-K1, cGMP production as percentage of maximum of compound A (set to 100%), read-out: % Activation; for pEC50: inflection point of cGMP production, 4P fit, read-out: IP
Procedure, shortened: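 cGMP made in CHO-K1/sGC (human α1/β1) cells is read by HTRF after compound treatment for 1 hr at 37° C, following 30 min at 25° C with or without 1 μM DETA-NO; IBMX 0.5 mM present. Values are % of standard compound maximum; 4P fit.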

[2] = tested on: hypoxia-induced pulmonary hypertension in rat; test: Acute efficacy in hypoxia-induced pulmonary hypertension in rat following intratracheal (IT) administration; format: in vivo; conditions: decrease in SBP at dose giving decrease in PAP ≥15 mmHg
Excerpt: Acute Efficacy in Hypoxia-Induced Pulmonary Hypertension in Rat Following Intratracheal (IT) Administration Charles River Sprague-Dawley (CD) male rats weighing approximately 350 g were implanted with HD-S21 dual pressure telemetry transmitters (Data Sciences International (DSI)) into the pulmonary artery and femoral artery. This transmitter enables simultaneous measurement of both pulmonary and systemic hemodynamic parameters in the same animal. After a 7-10 day post-operative recovery period, animals were subjected to a normobaric hypoxic (10% oxygen) environment using a Higher Peak Mountain Air Generator (MAG-10) connected to a modified rodent cage via a fitted inlet port. Oxygen (at 10%), temperature, humidity, and CO2 were controlled within normal range and animals were maintained on a 12 hour light-dark cycle with ad libitum access to food and water. After two weeks exposure to 10% O2 hypoxic environment, systolic pulmonary arterial pressure readings increased from ˜25 mmHg to greater than 50 mmHg. Using a 48 hour baseline average, animals with readings between 50-110 mmHg (standard deviation of less than 10 mmHg) and minimal changes in systolic systemic blood pressure were enrolled for study. Animals were utilized for up to 2 studies per week for 4 weeks with a minimum of 2 days washout between doses of test agent. Compound or vehicle was administered intra-tracheally under light isoflurane anesthesia (5% in oxygen; flow rate 2.0 L/min for 3 minutes). Once anesthetized, rats were placed on an angled intubation stand in supine position and the trachea visualized using a small laryngoscope. Animals then received either 0.5 mL/kg of vehicle or 0.5 mL/kg vehicle containing compound intra-tracheally delivered via microsprayer by use of a Penn-Century Microsprayer® needle 3″ (Model IA-1B-GP) attached to a 1 mL high pressure syringe (Penn Century-Model B—SYR-PL1000) (Penn-Century, Philadelphia, Pa.). The Microsprayer® tip was inserted into the trachea up to the point at which the bend in the needle is close to the tip of the snout, which positions the tip of the Microsprayer® in front of the carina (bifurcation of trachea at the bronchi). After dose delivery the animal is placed on its back in the home cage for recovery. Hemodynamic measurements were continuously recorded and readings consolidated to hourly moving averages. Each animal received a vehicle on Day 1 followed by vehicle or test agent on Day 2. Change from vehicle baseline was calculated by subtracting the hourly Day 1 vehicle response from the hourly Day 2 response and treatment group data was expressed as mean±SEM. Decreases of systolic blood pressure (SBP) and systolic pulmonary arterial pressure (PAP) were measured at a particular IT dose (mpk milligrams per kilogram) for the following Example compounds. Compounds in the Table 13 achieved a minimum decrease in PAP of ≥15 mmHg for the corresponding decrease in SBP listed.

Row | SMILES | pKi [1] | Emax (sGC α1/β1 heterodimer) | pEC50 (sGC α1/β1 heterodimer) | Category (decrease in SBP) ([2]; IT dose 0.03 mpk) | Category (decrease in SBP) ([2]; IT dose 0.01 mpk)
1 | CC1(c2cc(O)c(Cl)cn2)C(=O)Nc2nc(-c3cn4ccnc4c(CC4CCCCC4)n3)nc(N)c21 (stereo not drawn) [Example 93-B, 4-Amino-5-(5-chloro-4-hydroxypyridin-2-yl)-2-(8-(cyclohexylmethyl)imidazo[1,2-a]pyrazin-6-yl)-5-methyl-5,7-dihydro-6H-pyrrolo[2,3-d]pyrimidin-6-one] | 9.43 | 98% | 6.17 | A (decrease in SBP 0-5 mmHg) | 
2 | CC1(c2cc(O)c(Cl)cn2)C(=O)Nc2nc(-c3cn4ccnc4c(Cc4cc(F)ccc4F)n3)nc(N)c21 (stereo not drawn) [Example 94-B, 4-Amino-5-(5-chloro-4-hydroxypyridin-2-yl)-2-{8-[(2,5-difluorophenyl)methyl]imidazo[1,2-a]pyrazin-6-yl}-5-methyl-5,7-dihydro-6H-pyrrolo[2,3-d]pyrimidin-6-one] | 9.83 | 125% | 5.90 | B (decrease in SBP 5-10 mmHg) | 
3 | CC1(c2cc(O)c(C(F)(F)F)c(F)c2)C(=O)Nc2nc(-c3cn4ccnc4c(CC4CCCCC4)n3)nc(N)c21 (stereo not drawn) [Example 97-B, 4-Amino-2-(8-(cyclohexylmethyl)imidazo[1,2-a]pyrazin-6-yl)-5-(3-fluoro-5-hydroxy-4-(trifluoromethyl)phenyl)-5-methyl-5,7-dihydro-6H-pyrrolo[2,3-d]pyrimidin-6-one] | 9.23 | 138% | 5.97 | A (decrease in SBP 0-5 mmHg) | 
4 | CC1(c2cc(O)c(Cl)cn2)C(=O)Nc2nc(-c3cn4ncnc4c(CC4CCCCC4)n3)nc(N)c21 (stereo not drawn) [Example 105-B, 4-Amino-5-(5-chloro-4-hydroxypyridin-2-yl)-2-(8-(cyclohexylmethyl)-[1,2,4]triazolo[1,5-a]pyrazin-6-yl)-5-methyl-5,7-dihydro-6H-pyrrolo[2,3-d]pyrimidin-6-one] | 9.67 | 108% | 6.86 | B (decrease in SBP 5-10 mmHg) | 
5 | Cc1ccc(C2(C)C(=O)Nc3nc(-c4cn5ccnc5c(Cc5cccc(F)c5)n4)nc(N)c32)cc1O (stereo not drawn) [Example 107-B, 4-Amino-2-{8-[(3-fluorophenyl)methyl]imidazo[1,2-a]pyrazin-6-yl}-5-(3-hydroxy-4-methylphenyl)-5-methyl-5,7-dihydro-6H-pyrrolo[2,3-d]pyrimidin-6-one] | 9.66 | 135% | 6.70 |  | A (decrease in SBP 0-5 mmHg)
6 | CC1(c2cc(O)ccn2)C(=O)Nc2nc(-c3cn4ncnc4c(CC4CCCCC4)n3)nc(N)c21 (stereo not drawn) [Example 109-A, 4-Amino-2-(8-(cyclo-hexylmethyl)-[1,2,4]-triazolo[1,5-a]pyrazin-6-yl)-5-(4-hydroxy-pyridin-2-yl)-5-methyl-5,7-dihydro-6H-pyrrolo-[2,3-d]pyrimidin-6-one] | 9.20 | 97% | 6.66 | C (decrease in SBP >10 mmHg) | 
